In patent US20090233997A1, “COMPOSITION FOR PROMOTING SYNTHESIS OF COLLAGEN, AND COMPOSITION FOR EXTERNAL PREPARATION FOR SKIN COMPRISING THE SAME” (LG HOUSEHOLD & HEALTH CARE, LTD., priority 2003, published 2009):
Converted amounts (≈) assume the structure as drawn. “And” between values parts separate entries of the source, which are not always exact repeats. Equal entries are not always repeated.

What was measured:
human fibroblasts = assay: Collagen synthesis effect in human fibroblast culture (PICP EIA Kit); assay type: cell-based; conditions: for Quantity of Synthesized Collagen: cultured one day, 450 nm, n=6; for Increase Rate: relative ratio to collagen generation of control group
Method: The collagen synthesis effect of Xanthotoxol was tested by adding Xanthotoxol to a culture broth for human fibroblasts. The quantity of the synthesized collagen was assayed by using a Procollagen Type I C-Peptide Enzyme ImmunoAssay (PICP EIA) Kit.
Xanthotoxol solution aliquots having final concentrations of 0.5 μg/ml, 1 μg/ml, 2 μg/ml, 5 μg/ml, and 10 μg/ml were added to a culture media for human fibroblasts, and the fibroblasts were cultured for one day. The culture broth of each concentration was taken out and the quantity of synthesized collagen was measured with a spectrophotometer at 450 nm by using the PICP EIA Kit.
To compare the effect of collagen synthesis, the human fibroblasts were cultured in a culture medium to which no extra element was added (i.e., a control group) and in a culture medium to which vitamin C having a final concentration of 52.8 μg/ml was added, and the quantity of synthesized collagen was measured with respect to the two samples with the same method as above.
The quantity of generated collagen was measured by using an ultraviolet ray (UV) spectrophotometer, and the increase rate of collagen generation was calculated in a relative ratio with respect to the collagen generation quantity of the control group.
The quantity of synthesized collagen and the increase rate of collagen were measured with the same method as in Experimental Example 1, except that 8-hydroxybergapten was used instead of xanthotoxol.
The quantity of synthesized collagen and the increase rate of collagen were measured with the same method as in Experimental Example 1, except that prangenidin was used instead of xanthotoxol.

[1] = system: skin wrinkles of hairless mice; assay: Anti-wrinkle effect on hairless mice with light-induced skin wrinkles; assay type: in vivo; conditions: 5 mg/ml in 1,3-butyleneglycol, treated 6 weeks, group of 10
Method: The anti-wrinkle effects of xanthotoxol, 8-hydroxybergapten, and prangenidin were tested with respect to 6-week-old hairless mice having skin wrinkles caused by radiating light. Samples were prepared by extracting xanthotoxol, 8-hydroxybergapten, and prangenidin in accordance with Examples 1 through 3 and dissolving them in 1,3-butyleneglycol to thereby prepare 5 mg/ml sample solutions.
The skin wrinkles were caused by radiating light of 2 Minimum Erythema Dose (MED) to hairless mice with a solar simulator, three days a week for 10 weeks. Then, the improvement was assayed based on quality with respect to a control group of hairless mice treated with 1,3-butyleneglycol and test groups of hairless mice treated with the 5 mg/ml samples for 6 weeks.
The extent of wrinkle improvement was determined with the naked bare eye and by photographing the areas treated with the samples. The test groups and the control group were compared and the result was determined in three steps: no improvement; some improvement; and remarkable improvement.

[2] = system: ear edema of hairless mice; assay: Anti-inflammatory effect, ear swelling method (arachidonic acid); assay type: in vivo; conditions: 1 wt % in ethanol, 20 μl/ear, 2 mg/ear arachidonic acid, test ear vs controlled ear, group of 3
Method: The anti-inflammatory effect was evaluated in an ear swelling method by using 6-week-old hairless mice. The left ears of the hairless mice were used as controlled areas to be compared with the test areas, and the right ears of the hairless mice were used as the test areas. Prior to the test, both ears of all the hairless mice were measured three times. Sample solutions were prepared by extracting xanthotoxol, 8-hydroxybergapten, and prangenidin in accordance with […] and dissolving them in ethanol at 1 wt %, individually. Then, 20 μl/ear sample solutions were applied to the right ears of the hairless mice, and 20 μl/ear of ethanol was applied to the left ear thereof. An hour later, 2 mg/ear of arachidonic acid was applied to both ears of the hairless mice. After another hour had passed, the extent of ear edema was measured by using a micrometer, three times. Also, for comparison purposes, the anti-inflammatory effect of indomethacine, which is generally known as an anti-inflammatory agent, was measured with the same method.
The anti-inflammatory effect was a ratio of a thickness of an ear in the test area to the thickness of an ear in the controlled area. It was calculated based on the following Equation 1 and presented as a damage rate.
Damage rate (%)=(thickness of ear in test area/thickness of ear in controlled area)×100 Equation 1

[3] = Antioxidative effect in the DPPH scavenging method; conditions: 30 minutes, 517 nm
Method: The antioxidative effects of 8-hydroxybergapten and prangenidin were measured by using 1,1-diphenyl-2-picrylhydrazyl (DPPH). The radical scavenging activity of each sample was calculated by measuring an optical density (O.D.) at 517 nm with a spectrophotometer. Sample solutions were prepared by extracting samples, i.e., 8-hydroxybergapten and prangenidin, in accordance with the methods of Examples 2 and 3 and mixing the samples in concentrations of 3 μg/ml, 5 μg/ml, 10 μg/ml, 12 μg/ml, 50 μg/ml, 80 μg/ml, and 100 μg/ml, individually. Then, experimental solutions were prepared by mixing the 500 μl aliquots of the tested sample solutions with 500 μl of a 1.5×10^−4 M DPPH methanolic solution. The quantity of DPPH remaining in each experimental solution was measured 30 minutes after the preparation of experimental solutions by using the spectrophotometer at 517 nm. In order to subtract the inherent optical densities of the samples from the measurement values of the experimental solutions, the optical densities of the sample solutions of the same concentrations were also measured at 517 nm. A control solution was prepared by mixing 500 μl of a 1.5×10^−4 M DPPH methanolic solution with 500 μl of a methanol solution and using the mixture 30 minutes after the preparation. The radical scavenging activity of each sample was calculated based on the following Equation 2.
To determine the radical scavenging activity of each sample, a coefficient of correlation (R), which is a value in connection with the radical scavenging activity, was obtained, and an IC50, a value that scavenges DPPH by 50%, was calculated. Also, in order to compare the antioxidative effects, the same experiment was carried out with respect to vitamin C.

incision wounds of rats = assay: Wound healing effect, tension stiffness method; assay type: in vivo; conditions: for Tensile Strength: 1 wt % in ethanol, 0.5 ml/cm^2 once every day for 6 days; for Strength Rate: relative to control group (ethanol only) taken as 100%
Method: A wound healing effect was tested with respect to 5-week-old male rats by using a tension stiffness method that reflects the quality and quantity of restoration from wounds. The backs of the rats were shaved and wounded with a scalpel, and then the incision was sutured. Sample solutions were prepared by extracting 8-hydroxybergapten and prangenidin in accordance with Examples 2 and 3, and dissolving them in ethanol at 1 wt %, individually. The sample solutions were injected into the incisions at 0.5 ml/cm^2 once every day for 6 days. After 6 days, the rats were sacrificed and the skin around the wounds was removed. Three skin specimens of 1 cm-wide skin flakes crossing the incision line were prepared for each individual and their tensile strength (g/cm) was measured by using a rheometer. The measured tensile strength was used as an index of the strength of the generated collagen fiber. The tensile strength of the control group, to which only ethanol without the sample therein was applied, was taken as 100% and the increase in the tensile strength was measured as a relative strength thereto.

O=c1ccc2cc3ccoc3c(O)c2o1 [Xanthotoxol, 8-hydroxypsoralen]
Quantity of Synthesized Collagen (human fibroblasts; 0.5 μg/ml): 1.449 ± 0.039 Abs | Increase Rate (human fibroblasts; 0.5 μg/ml): 128.36% | Quantity of Synthesized Collagen (human fibroblasts; 1.0 μg/ml): 1.535 ± 0.078 Abs | Increase Rate (human fibroblasts; 1.0 μg/ml): 135.94% | Quantity of Synthesized Collagen (human fibroblasts; 2.0 μg/ml): 1.623 ± 0.084 Abs | Increase Rate (human fibroblasts; 2.0 μg/ml): 143.75% | Quantity of Synthesized Collagen (human fibroblasts; 5.0 μg/ml): 1.651 ± 0.130 Abs | Increase Rate (human fibroblasts; 5.0 μg/ml): 146.24% | Quantity of Synthesized Collagen (human fibroblasts; 10.0 μg/ml): 1.657 ± 0.112 Abs | Increase Rate (human fibroblasts; 10.0 μg/ml): 146.81% | No Improvement (number of mice) [1]: 2 | Remarkable Improvement (number of mice) [1]: 3 | Some Improvement (number of mice) [1]: 5 | Damage Rate [2]: 42% | IC 50 (scavenges DPPH by 50%) [3]: 24.0 µg/mL (≈ 119 µM) | Tensile Strength (incision wounds of rats): 642 g/cm | Strength Rate (incision wounds of rats): 117%

O=C1O[C@H]([C@@H](O)CO)C(O)=C1O [Vitamin C, vitamin C, reference compound]
Quantity of Synthesized Collagen (human fibroblasts; 52.8 μg/ml): 1.598 ± 0.145 Abs and 1.757 ± 0.121 Abs and 1.739 ± 0.145 Abs | Increase Rate (human fibroblasts; 52.8 μg/ml): 141.57% and 134.1% and 130.8% | IC 50 (scavenges DPPH by 50%) [3]: 8.43 µg/mL (≈ 47.9 µM)

COc1c2ccoc2c(O)c2oc(=O)ccc12 [8-Hydroxybergapten, 5-benzofuranacrylic acid and 6,7-dihydroxy-4-methoxy-, delta-lactone]
Quantity of Synthesized Collagen (human fibroblasts; 0.5 μg/ml): 1.590 ± 0.102 Abs | Increase Rate (human fibroblasts; 0.5 μg/ml): 121.4% | Quantity of Synthesized Collagen (human fibroblasts; 1.0 μg/ml): 1.876 ± 0.097 Abs | Increase Rate (human fibroblasts; 1.0 μg/ml): 143.2% | Quantity of Synthesized Collagen (human fibroblasts; 2.0 μg/ml): 1.949 ± 0.111 Abs | Increase Rate (human fibroblasts; 2.0 μg/ml): 148.8% | Quantity of Synthesized Collagen (human fibroblasts; 5.0 μg/ml): 1.953 ± 0.132 Abs | Increase Rate (human fibroblasts; 5.0 μg/ml): 149.1% | Quantity of Synthesized Collagen (human fibroblasts; 10.0 μg/ml): 2.008 ± 0.129 Abs | Increase Rate (human fibroblasts; 10.0 μg/ml): 153.3% | No Improvement (number of mice) [1]: 0 | Remarkable Improvement (number of mice) [1]: 6 | Some Improvement (number of mice) [1]: 4 | Damage Rate [2]: 45% | IC 50 (scavenges DPPH by 50%) [3]: 20.3 µg/mL (≈ 87.4 µM) | Tensile Strength (incision wounds of rats): 680 g/cm | Strength Rate (incision wounds of rats): 124%

CC(C)=CCc1c2ccoc2c(O)c2oc(=O)ccc12 [Prangenidin, 5-Benzofuranacrylic acid, 6,7-dihydroxy-4-(3-methyl-2-butenyl)-delta-lactone]
Quantity of Synthesized Collagen (human fibroblasts; 0.5 μg/ml): 1.537 ± 0.099 Abs | Increase Rate (human fibroblasts; 0.5 μg/ml): 115.6% | Quantity of Synthesized Collagen (human fibroblasts; 1.0 μg/ml): 1.778 ± 0.121 Abs | Increase Rate (human fibroblasts; 1.0 μg/ml): 133.7% | Quantity of Synthesized Collagen (human fibroblasts; 2.0 μg/ml): 1.801 ± 0.135 Abs | Increase Rate (human fibroblasts; 2.0 μg/ml): 135.4% | Quantity of Synthesized Collagen (human fibroblasts; 5.0 μg/ml): 1.813 ± 0.130 Abs | Increase Rate (human fibroblasts; 5.0 μg/ml): 136.3% | Quantity of Synthesized Collagen (human fibroblasts; 10.0 μg/ml): 1.820 ± 0.204 Abs | Increase Rate (human fibroblasts; 10.0 μg/ml): 136.8% | No Improvement (number of mice) [1]: 1 | Remarkable Improvement (number of mice) [1]: 4 | Some Improvement (number of mice) [1]: 5 | Damage Rate [2]: 40% | IC 50 (scavenges DPPH by 50%) [3]: 21.6 µg/mL (≈ 79.9 µM) | Tensile Strength (incision wounds of rats): 663 g/cm | Strength Rate (incision wounds of rats): 121%

COc1ccc2c(c1)c(CC(=O)O)c(C)n2C(=O)c1ccc(Cl)cc1 [Indomethacine, indomethacine, reference compound]
Damage Rate [2]: 51%
